{"source": "paper PMC10600239", "about": "“Selective MCL-1 inhibitor ABBV-467 is efficacious in tumor models but is associated with cardiac troponin increases in patients” (Communications Medicine, 2023)", "tested_on": "H929 cells", "assay": "Caspase-3/7 activation and viability (DRAQ7) over time by Incucyte", "type": "cell-based, human", "description": "Fig. 2 Apoptosis induced by ABBV-467 is mechanism based and induces cell death in MCL-1-dependent cell lines after short target engagement periods. H929 cells were treated with ABBV-467 in the presence or absence of the pan-caspase inhibitor z-VAD-fmk (50 µM) and the impact on caspase-3/7 activation (a), mitochondrial membrane potential (ΔΨm; b), and apoptosis (c) determined. Alternatively, BAK-deficient SKBR3 cells were treated with ABBV-467 for 24 h and the impact on cell viability compared with the parental cell line, determined by CellTiter-Glo. Inset depicts a western blot of BAK and BAX expression in SKBR3 cell variants using GAPDH as a loading control. Each of the 3 proteins were probed on separate blots (d). Data in (a–d) are presented as the mean ± standard error of the mean. H929 and AMO-1 cells were treated with ABBV-467 at the indicated concentrations and the impact on caspase-3/7 activation and viability (DRAQ7-positive) cells determined over time by Incucyte®. Data are presented as the mean ± standard deviation (e). H929 or AMO-1 cells were cultured in media containing 10% human serum and treated with ABBV-467 for the indicated contact times. Cells were subsequently washed 3 times with drug-free media and incubated in drug-free media for the remainder of the 24-h treatment period at 37 °C before cell viability was determined by CellTiter-Glo. Mean EC50 and EC90 values were determined from the resulting dose-response curves from at least 3 independent experiments, each assessed in quadruplicate, and depict the mean ± standard error of the mean. Presented ABBV-467 dose-response curves in H929 and AMO-1 cells were compiled from at least 3 independent experiments (f).", "data": [{"smiles": "Cc1c(Cl)c2c(Cl)c(C)c1-c1c(-c3ccc(F)cc3)sc3ncnc(c13)O[C@@H](C(=O)O)Cc1cc(ccc1OCc1ccnc(-c3ccc(OC[C@H]4COCCO4)cc3)n1)OC[C@@H](CN1CCN(C)CC1)O2", "note": "[ABBV-467]", "values": [{"measurement": "Caspase-3/-7 Activation", "setting": "ABBV-467 0.01 nM, 0 hours", "result": 232.365}, {"measurement": "Caspase-3/-7 Activation", "setting": "ABBV-467 0.01 nM, 1 hours", "result": 224.632}, {"measurement": "Caspase-3/-7 Activation", "setting": "ABBV-467 0.01 nM, 2 hours", "result": 270.553}, {"measurement": "Caspase-3/-7 Activation", "setting": "ABBV-467 0.01 nM, 3 hours", "result": 259.728}, {"measurement": "Caspase-3/-7 Activation", "setting": "ABBV-467 0.01 nM, 4 hours", "result": 277.62}, {"measurement": "Caspase-3/-7 Activation", "setting": "ABBV-467 0.01 nM, 5 hours", "result": 289.07}, {"measurement": "Caspase-3/-7 Activation", "setting": "ABBV-467 0.01 nM, 6 hours", "result": 301.552}, {"measurement": "Caspase-3/-7 Activation", "setting": "ABBV-467 0.01 nM, 7 hours", "result": 311.821}, {"measurement": "Caspase-3/-7 Activation", "setting": "ABBV-467 0.01 nM, 8 hours", "result": 334.669}, {"measurement": "Caspase-3/-7 Activation", "setting": "ABBV-467 0.01 nM, 9 hours", "result": 348.392}, {"measurement": "Caspase-3/-7 Activation", "setting": "ABBV-467 0.01 nM, 10 hours", "result": 365.28}, {"measurement": "Caspase-3/-7 Activation", "setting": "ABBV-467 0.01 nM, 11 hours", "result": 391.805}, {"measurement": "Caspase-3/-7 Activation", "setting": "ABBV-467 0.01 nM, 12 hours", "result": 438.261}, {"measurement": "Caspase-3/-7 Activation", "setting": "ABBV-467 0.01 nM, 13 hours", "result": 454.339}, {"measurement": "Caspase-3/-7 Activation", "setting": "ABBV-467 0.01 nM, 14 hours", "result": 484.741}, {"measurement": "Caspase-3/-7 Activation", "setting": "ABBV-467 0.1 nM, 0 hours", "result": 225.588}, {"measurement": "Caspase-3/-7 Activation", "setting": "ABBV-467 0.1 nM, 1 hours", "result": 235.59}, {"measurement": "Caspase-3/-7 Activation", "setting": "ABBV-467 0.1 nM, 2 hours", "result": 274.692}, {"measurement": "Caspase-3/-7 Activation", "setting": "ABBV-467 0.1 nM, 3 hours", "result": 258.216}, {"measurement": "Caspase-3/-7 Activation", "setting": "ABBV-467 0.1 nM, 4 hours", "result": 255.874}, {"measurement": "Caspase-3/-7 Activation", "setting": "ABBV-467 0.1 nM, 5 hours", "result": 269.765}, {"measurement": "Caspase-3/-7 Activation", "setting": "ABBV-467 0.1 nM, 6 hours", "result": 277.457}, {"measurement": "Caspase-3/-7 Activation", "setting": "ABBV-467 0.1 nM, 7 hours", "result": 313.21}, {"measurement": "Caspase-3/-7 Activation", "setting": "ABBV-467 0.1 nM, 8 hours", "result": 322.526}, {"measurement": "Caspase-3/-7 Activation", "setting": "ABBV-467 0.1 nM, 9 hours", "result": 349.891}, {"measurement": "Caspase-3/-7 Activation", "setting": "ABBV-467 0.1 nM, 10 hours", "result": 382.789}, {"measurement": "Caspase-3/-7 Activation", "setting": "ABBV-467 0.1 nM, 11 hours", "result": 408.8}, {"measurement": "Caspase-3/-7 Activation", "setting": "ABBV-467 0.1 nM, 12 hours", "result": 435.203}, {"measurement": "Caspase-3/-7 Activation", "setting": "ABBV-467 0.1 nM, 13 hours", "result": 463.242}, {"measurement": "Caspase-3/-7 Activation", "setting": "ABBV-467 0.1 nM, 14 hours", "result": 524.814}, {"measurement": "Caspase-3/-7 Activation", "setting": "ABBV-467 1 nM, 0 hours", "result": 207.355}, {"measurement": "Caspase-3/-7 Activation", "setting": "ABBV-467 1 nM, 1 hours", "result": 234.094}, {"measurement": "Caspase-3/-7 Activation", "setting": "ABBV-467 1 nM, 2 hours", "result": 278.959}, {"measurement": "Caspase-3/-7 Activation", "setting": "ABBV-467 1 nM, 3 hours", "result": 292.278}, {"measurement": "Caspase-3/-7 Activation", "setting": "ABBV-467 1 nM, 4 hours", "result": 394.898}, {"measurement": "Caspase-3/-7 Activation", "setting": "ABBV-467 1 nM, 5 hours", "result": 570.705}, {"measurement": "Caspase-3/-7 Activation", "setting": "ABBV-467 1 nM, 6 hours", "result": 716.626}, {"measurement": "Caspase-3/-7 Activation", "setting": "ABBV-467 1 nM, 7 hours", "result": 887.617}, {"measurement": "Caspase-3/-7 Activation", "setting": "ABBV-467 1 nM, 8 hours", "result": 1099.54}, {"measurement": "Caspase-3/-7 Activation", "setting": "ABBV-467 1 nM, 9 hours", "result": 1287.07}, {"measurement": "Caspase-3/-7 Activation", "setting": "ABBV-467 1 nM, 10 hours", "result": 1419.14}, {"measurement": "Caspase-3/-7 Activation", "setting": "ABBV-467 1 nM, 11 hours", "result": 1610.17}, {"measurement": "Caspase-3/-7 Activation", "setting": "ABBV-467 1 nM, 12 hours", "result": 1722.67}, {"measurement": "Caspase-3/-7 Activation", "setting": "ABBV-467 1 nM, 13 hours", "result": 1826.71}, {"measurement": "Caspase-3/-7 Activation", "setting": "ABBV-467 1 nM, 14 hours", "result": 1859.69}, {"measurement": "Caspase-3/-7 Activation", "setting": "ABBV-467 10 nM, 0 hours", "result": 233.175}, {"measurement": "Caspase-3/-7 Activation", "setting": "ABBV-467 10 nM, 1 hours", "result": 264.944}, {"measurement": "Caspase-3/-7 Activation", "setting": "ABBV-467 10 nM, 2 hours", "result": 553.515}, {"measurement": "Caspase-3/-7 Activation", "setting": "ABBV-467 10 nM, 3 hours", "result": 945.842}, {"measurement": "Caspase-3/-7 Activation", "setting": "ABBV-467 10 nM, 4 hours", "result": 1332.17}]}]}
